These results are taken from ChEMBL document CHEMBL1154779, “Synthesis and adrenolytic activity of 1-(1H-indol-4-yloxy)-3-(2-(2-methoxy phenoxy)ethylamino)propan-2-ol analogs and its enantiomers. Part 2” (Eur J Med Chem, 2009).

Structures are written as SMILES. Activity calls are given as the source filed them. The calls are words filed in the database; no cut-off is given here.

In assay [1] the test system is Rattus norvegicus. Description: Hypotensive activity in normotensive Wistar rat assessed as decrease in diastolic blood pressure at 0.0625 mg/kg, iv up to 60 mins. The class given is functional, organism-based. Details: dose 0.0625 mg/kg. The conditions noted are these: Artery.
The target of assay [2] is T1, Adrenergic receptor alpha-2 (Rattus norvegicus, UniProt P22086+P19328+P22909).
T1 sequence (P22086 whole entry): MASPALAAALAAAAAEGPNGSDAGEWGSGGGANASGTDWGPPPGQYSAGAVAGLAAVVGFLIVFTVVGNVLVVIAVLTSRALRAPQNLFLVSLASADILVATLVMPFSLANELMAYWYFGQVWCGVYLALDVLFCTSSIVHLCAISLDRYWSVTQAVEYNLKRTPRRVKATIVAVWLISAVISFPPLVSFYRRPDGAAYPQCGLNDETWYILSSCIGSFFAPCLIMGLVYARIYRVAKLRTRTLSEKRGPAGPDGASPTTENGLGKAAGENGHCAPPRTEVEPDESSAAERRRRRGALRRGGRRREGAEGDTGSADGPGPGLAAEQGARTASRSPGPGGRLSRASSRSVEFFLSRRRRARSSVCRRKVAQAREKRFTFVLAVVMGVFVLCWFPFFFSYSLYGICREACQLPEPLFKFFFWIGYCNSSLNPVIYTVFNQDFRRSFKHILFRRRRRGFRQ
T1 sequence (P19328 whole entry): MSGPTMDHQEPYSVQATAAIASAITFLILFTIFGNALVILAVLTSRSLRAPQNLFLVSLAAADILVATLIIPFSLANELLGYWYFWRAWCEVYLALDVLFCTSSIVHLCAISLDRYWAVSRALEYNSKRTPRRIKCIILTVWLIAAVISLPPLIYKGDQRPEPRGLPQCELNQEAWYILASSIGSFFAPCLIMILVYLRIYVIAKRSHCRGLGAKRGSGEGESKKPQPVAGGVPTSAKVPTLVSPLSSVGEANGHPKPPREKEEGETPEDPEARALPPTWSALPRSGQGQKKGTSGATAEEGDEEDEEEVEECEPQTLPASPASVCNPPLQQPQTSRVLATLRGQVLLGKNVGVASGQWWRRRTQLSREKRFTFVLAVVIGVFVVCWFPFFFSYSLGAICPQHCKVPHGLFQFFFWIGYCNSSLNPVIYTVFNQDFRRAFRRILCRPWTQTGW
T1 sequence (P22909 whole entry): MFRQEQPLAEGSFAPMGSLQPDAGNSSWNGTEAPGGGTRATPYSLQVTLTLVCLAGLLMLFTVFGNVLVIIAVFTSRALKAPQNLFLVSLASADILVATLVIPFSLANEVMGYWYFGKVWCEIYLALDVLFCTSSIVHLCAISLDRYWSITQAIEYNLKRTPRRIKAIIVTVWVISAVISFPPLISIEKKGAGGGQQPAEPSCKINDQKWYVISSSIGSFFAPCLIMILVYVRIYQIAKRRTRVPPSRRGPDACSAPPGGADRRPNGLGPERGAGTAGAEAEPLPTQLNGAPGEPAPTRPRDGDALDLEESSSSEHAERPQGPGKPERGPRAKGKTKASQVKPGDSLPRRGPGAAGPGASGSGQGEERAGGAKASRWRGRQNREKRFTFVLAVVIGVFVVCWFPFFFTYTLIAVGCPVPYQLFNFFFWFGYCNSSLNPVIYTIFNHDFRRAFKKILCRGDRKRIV
Nature of the assay: Displacement of [3H]Clonidine from alpha2 adrenergic receptor in Wistar rat cerebral cortex membrane by liquid scintillation counting. Format: tissue-based. In general terms: Loss of bound radioactivity is the signal in a displacement assay; it reports binding, not function.

The test system of assay [3] is Rattus norvegicus. Description: Effect on heart rate in anesthetized Wistar rat assessed as heart beats per min at 1 mg/kg, iv after 5 mins by electrocardiography. Format: functional.
Assay [4] deals with Rattus norvegicus. Description: Effect on heart rate in anesthetized Wistar rat assessed as QRS complex time at 1 mg/kg, iv after 15 mins by electrocardiography. The class given is functional.
The test system of assay [5] is Rattus norvegicus. Description: Hypotensive activity in normotensive Wistar rat assessed as decrease in diastolic blood pressure at 1 to 5 mg/kg, iv up to 60 mins. The conditions noted are these: Artery. The class given is functional, organism-based.
For assay [6], the species on record is Oryctolagus cuniculus. Description: (§1) Spasmolytic activity in rabbit ileum assessed as decrease in amplitude of contraction at 100 uM measured for 5 mins. Format: functional.
The test system of assay [7] is Rattus norvegicus. Description: Effect on heart rate in anesthetized Wistar rat assessed as Q-T intervals time at 1 mg/kg, iv after 1 min by electrocardiography. The class given is functional.
The test system of assay [8] is Rattus norvegicus. Nature of the assay: Effect on heart rate in anesthetized Wistar rat assessed as QRS complex time at 1 mg/kg, iv after 5 mins by electrocardiography. The class given is functional.
In assay [9] the test system is Rattus norvegicus. Nature of the assay: Effect on heart rate in anesthetized Wistar rat assessed as P-Q intervals time at 1 mg/kg, iv after 5 mins by electrocardiography. The class given is functional.
Assay [10] concerns Rattus norvegicus. Nature of the assay: Hypotensive activity in normotensive Wistar rat assessed as decrease in systolic blood pressure at 0.125 to 1 mg/kg, iv up to 60 mins. The class given is functional, organism-based. The conditions noted are these: Artery.
The test system of assay [11] is Rattus norvegicus. Description: Hypotensive activity in normotensive Wistar rat assessed as decrease in systolic blood pressure at 0.0625 mg/kg, iv up to 60 mins. Set-up: dose 0.0625 mg/kg. The conditions noted are these: Artery. The class given is functional, organism-based.
Assay [12] concerns Rattus norvegicus. Nature of the assay: Effect on heart rate in anesthetized Wistar rat assessed as QRS complex time at 1 mg/kg, iv after 1 min by electrocardiography. Format: functional.
Assay [13] is filed under the species Oryctolagus cuniculus. Nature of the assay: (§2) Spasmolytic activity in rabbit ileum assessed as decrease in amplitude of contraction at 10 uM measured for 5 mins. Format: functional.
In assay [14] the test system is Rattus norvegicus. Nature of the assay: Hypotensive activity in normotensive Wistar rat assessed as decrease in systolic blood pressure at 0.0312 mg/kg, iv up to 60 mins. The class given is functional, organism-based. Details: dose 0.0312 mg/kg. The conditions noted are these: Artery.
The test system of assay [15] is Rattus norvegicus. Description: Hypotensive activity in normotensive Wistar rat assessed as decrease in diastolic blood pressure at 0.0312 mg/kg, iv up to 60 mins. Format: functional, organism-based. Details: dose 0.0312 mg/kg. The conditions noted are these: Artery.
In assay [16] the test system is Rattus norvegicus. Nature of the assay: Hypotensive activity in normotensive Wistar rat assessed as decrease in diastolic blood pressure at 0.125 mg/kg, iv up to 10 mins. Set-up: dose 0.125 mg/kg. The class given is functional, organism-based. The conditions noted are these: Artery.
The test system of assay [17] is Rattus norvegicus. Description: Hypotensive activity in normotensive Wistar rat assessed as decrease in systolic blood pressure at 0.25 to 1 mg/kg, iv up to 60 mins. The conditions noted are these: dose mg/kg 0.25-1. Set-up: scale not given: the % may be the effect or the level left. The class given is functional.
For assay [18], the system named is Rattus norvegicus. Nature of the assay: Hypotensive activity in normotensive Wistar rat assessed as decrease in systolic blood pressure at 0.125 mg/kg, iv up to 30 mins. The conditions noted are these: Artery. Set-up: dose 0.125 mg/kg. Format: functional, organism-based.
Assay [19] has as its system Rattus norvegicus. Nature of the assay: Hypotensive activity in normotensive Wistar rat assessed as decrease in diastolic blood pressure at 0.25 to 1 mg/kg, iv up to 60 mins. The class given is functional, Artery. Details: scale not given: the % may be the effect or the level left. The conditions noted are these: dose mg/kg 0.25-1.
The nature of assay [20]: as §1. Format: functional, Oryctolagus cuniculus. Details: scale not given: the % may be the effect or the level left.
The subject of assay [21] is Rattus norvegicus. Description: Effect on heart rate in anesthetized Wistar rat assessed as decrease in heart rate at 1 mg/kg, iv up to 15mins by electrocardiography. Set-up: scale not given: the % may be the effect or the level left. Format: functional.
In assay [22] the test system is Rattus norvegicus. Nature of the assay: Hypotensive activity in normotensive Wistar rat assessed as decrease in diastolic blood pressure at 0.125 mg/kg, iv up to 60 mins. Format: functional, organism-based. Set-up: dose 0.125 mg/kg. The conditions noted are these: Artery.
Assay [23] is described as follows: as §2. Format: functional, Oryctolagus cuniculus. Set-up: scale not given: the % may be the effect or the level left.
Assay [24] deals with Rattus norvegicus. Nature of the assay: Hypotensive activity in normotensive Wistar rat assessed as decrease in systolic blood pressure at 0.125 mg/kg, iv up to 60 mins. Format: functional, organism-based. Details: dose 0.125 mg/kg. The conditions noted are these: Artery.

As for `COc1ccccc1OCCNC[C@@H](O)COc1c(OC)ccc2[nH]ccc12`, the outcome in the assay with Rattus norvegicus [1] and with Rattus norvegicus [11] was inactive. The same compound yielded an inhibitory constant (Ki) in assay [2] of 43 nM. Also, the Activity with Rattus norvegicus [3] is 403.2 bpm; in the assay on Rattus norvegicus [4] it was 28.7 ms; in the assay with Rattus norvegicus [7] it was 106.7 ms; in the assay with Rattus norvegicus [8], 28.7 ms; with Rattus norvegicus [9] it was 42.7 ms; in the assay on Rattus norvegicus [12] it was 28 ms. Besides, the outcome with Rattus norvegicus [5], in the assay listed under Oryctolagus cuniculus [6], in the assay on Rattus norvegicus [10] and in the assay filed under Oryctolagus cuniculus [13] was Active.
The compound `COc1ccccc1OCCNC[C@H](O)COc1c(OC)ccc2[nH]ccc12` registered an inhibition constant (Ki) in assay [2] of 60.9 nM. Besides, the Activity in the assay with Rattus norvegicus [3] was 381 bpm; in the assay on Rattus norvegicus [4] it was 28 ms; with Rattus norvegicus [7], 107.3 ms; in the assay with Rattus norvegicus [8], 28.7 ms; with Rattus norvegicus [9], 46 ms; with Rattus norvegicus [12] it was 26 ms. Also, the result with Rattus norvegicus [5], in the assay filed under Oryctolagus cuniculus [6], in the assay with Rattus norvegicus [10] and in the assay filed under Oryctolagus cuniculus [13] was Active. For the same compound, the result with Rattus norvegicus [14] and in the assay with Rattus norvegicus [15] was inactive.
For the compound `COc1ccccc1OCCNCC(O)COc1c(OC)ccc2[nH]ccc12` (racemic), the Ki in assay [2] was determined as 56.9 nM. In addition, the Activity in the assay with Rattus norvegicus [3] is given as 372.9 bpm; with Rattus norvegicus [4] it was 26 ms; in the assay on Rattus norvegicus [7], 111.4 ms; in the assay on Rattus norvegicus [8], 27.3 ms; in the assay with Rattus norvegicus [9], 51.3 ms; in the assay with Rattus norvegicus [17], 7%. Further, the Activity with Rattus norvegicus [12] worked out at 31.3 ms; in the assay with Rattus norvegicus [19], 8%. Also, the outcome with Rattus norvegicus [5], in the assay listed under Oryctolagus cuniculus [6], with Rattus norvegicus [16], with Rattus norvegicus [10] and in the assay with Rattus norvegicus [18] was Active. Further, the result in the assay listed under Oryctolagus cuniculus [13] was inactive.
`COc1ccccc1OCCNCC(O)COc1ccc(OC)c2[nH]ccc12` (racemic) displayed a Ki in assay [2] of 180.8 nM. Besides, the Activity in the assay on Rattus norvegicus [3] is listed as 292.2 bpm; in the assay on Rattus norvegicus [4], 22.7 ms; in assay [20], 10%; with Rattus norvegicus [21], 10%; in the assay with Rattus norvegicus [7] it was 87.1 ms; in the assay with Rattus norvegicus [8], 23 ms. Moreover, the Activity in the assay with Rattus norvegicus [9] is listed as 59.4 ms; in the assay on Rattus norvegicus [17], 12%; in the assay with Rattus norvegicus [12], 24.2 ms; in [23] it was 10%; with Rattus norvegicus [19], 13%. Also, the outcome in the assay listed under Oryctolagus cuniculus [6], in the assay on Rattus norvegicus [22], in the assay listed under Oryctolagus cuniculus [13] and in the assay with Rattus norvegicus [24] was inactive.
In turn, `COc1ccccc1OCCNC[C@@H](O)COc1ccc(OC)c2[nH]ccc12` showed a Ki in assay [2] of 108.8 nM. Moreover, the Activity in the assay with Rattus norvegicus [3] came out at 259 bpm; in the assay on Rattus norvegicus [4], 24.5 ms; in the assay on Rattus norvegicus [21], 10%; in the assay on Rattus norvegicus [7], 89.2 ms; in the assay with Rattus norvegicus [8] it was 23.3 ms; with Rattus norvegicus [9] it was 59.7 ms. Also, the Activity in the assay on Rattus norvegicus [17] is recorded as 12%; with Rattus norvegicus [12], 22.7 ms; with Rattus norvegicus [19] it was 13%. The outcome with Rattus norvegicus [22] and in the assay with Rattus norvegicus [24] was inactive.
In assay [2], `COc1ccccc1OCCNC[C@H](O)COc1ccc(OC)c2[nH]ccc12` yielded a Ki of 277.2 nM. In addition, the Activity in the assay on Rattus norvegicus [3] was determined as 292.3 bpm; in the assay on Rattus norvegicus [4], 22.5 ms; in [20], 10%; with Rattus norvegicus [21] it was 10%; in the assay with Rattus norvegicus [7], 78.8 ms; in the assay with Rattus norvegicus [8] it was 24.5 ms. Besides, the Activity was 56.7 ms with Rattus norvegicus [9]; 12% in the assay with Rattus norvegicus [17]; 25 ms in the assay with Rattus norvegicus [12]; 10% in [23]; 13% with Rattus norvegicus [19]. Besides, the outcome with Rattus norvegicus [22] and with Rattus norvegicus [24] was inactive.

As a reminder, the Ki is a measure of affinity in units of concentration, obtained from inhibition or displacement.
